Measurements published in ChEMBL document CHEMBL5058564, “EUbOPEN Chemogenomics Library 2 (Incucyte)” (2022).
*1 amine or outer side, *2 acyl side, *3 side chain or, on linkers, in order; H or OH if unused. Where a SMILES comes first, the peptide text is derived from it. Bridges are numbered along the chain shown (N, C = ends). X1 = O=C(CCC[*:2])[*:1]

Legend:
Assay type in all cases: toxicity, cell-based
HEK-293T = assay: Incucyte cell viability with HEK293T; conditions: human, 10 µM, compound concentration 10 uM
U2OS = assay: Incucyte cell viability with U2OS; conditions: human, 10 µM, compound concentration 10 uM
Fibroblast = assay: Incucyte cell viability with human fibroblast; conditions: 10 µM, compound concentration 10 uM
[1] = 6 h, replicate number 1, timepoint 6 hours
[2] = 6 h, replicate number 2, timepoint 6 hours
[3] = 12 h, replicate number 1, timepoint 12 hours
[4] = 12 h, replicate number 2, timepoint 12 hours
[5] = 18 h, replicate number 1, timepoint 18 hours
[6] = 18 h, replicate number 2, timepoint 18 hours
[7] = 24 h, replicate number 1, timepoint 24 hours
[8] = 24 h, replicate number 2, timepoint 24 hours
[9] = 0 h, replicate number 1, timepoint 0 hours
[10] = 0 h, replicate number 2, timepoint 0 hours
Further: unitless GR value; below 1 slowed growth and below 0 cell loss.

Row | Structure (SMILES) | Growth Rate (HEK-293T; [1]) | Growth Rate (HEK-293T; [2]) | Growth Rate (HEK-293T; [3]) | Growth Rate (HEK-293T; [4]) | Growth Rate (HEK-293T; [5]) | Growth Rate (HEK-293T; [6]) | Growth Rate (HEK-293T; [8]) | Growth Rate (U2OS; [9]) | Growth Rate (U2OS; [2]) | Growth Rate (U2OS; [3]) | Growth Rate (U2OS; [4]) | Growth Rate (U2OS; [5]) | Growth Rate (U2OS; [6]) | Growth Rate (U2OS; [7]) | Growth Rate (U2OS; [8]) | Growth Rate (Fibroblast; [1]) | Growth Rate (Fibroblast; [5]) | Growth Rate (Fibroblast; [7]) | Growth Rate (U2OS; [10]) | Growth Rate (Fibroblast; [10]) | further results
1 | Cn1cc(-c2ccc3occ(-c4cccc(-c5ccncc5)c4)c3n2)cn1 | -0.87 | -0.61 | -0.67 | -0.44 | -0.56 | -0.33 | -0.32 | -0.88 | -0.14 | -0.03 | -0.05 | -0.03 | 0.09 | -0.02 | 0.09 | -0.96 | -0.87 | -0.84 |  |  | Growth Rate (HEK-293T; [7]): -0.43; Growth Rate (U2OS; [1]): -0.02; Growth Rate (Fibroblast; [3]): -0.95; Growth Rate (Fibroblast; [4]): -0.62; Growth Rate (Fibroblast; [6]): -0.23; Growth Rate (Fibroblast; [8]): 0.02
2 | CN1CCC(c2c[nH]c3ccc(O)cc23)CC1 |  |  |  | 0.98 | 0.98 | 0.89 | 0.89 | 0.81 |  | 0.97 |  |  |  |  |  | 0.11 |  |  | 0.6 | -0.25 | Growth Rate (HEK-293T; [10]): 0.25; Growth Rate (Fibroblast; [9]): 0.18
3 | CNCCN1CCC(c2cc(CN(C)C(=O)c3cccc(Oc4ccccc4)c3)ccn2)CC1 | 0.74 |  | 0.76 | 0.86 | 0.98 | 0.92 | 0.81 | -0.2 | 0.98 | 0.88 | 0.99 | 0.96 |  | 0.37 |  | 0.73 | 0.55 | 0.43 | 0.56 | 0.9 | Growth Rate (HEK-293T; [7]): 1; Growth Rate (Fibroblast; [9]): 0.7; Growth Rate (Fibroblast; [2]): 0.98; Growth Rate (Fibroblast; [3]): 0.83
4 | COc1ccc(-n2c(C)c([N+](=O)[O-])c3ccc(O)cc32)cc1 |  |  |  |  |  |  |  |  | 0.75 | 0.46 | 0.73 | 0.7 | 0.71 | 0.63 | 0.67 |  |  |  | -1 |  | Growth Rate (HEK-293T; [9]): 0.39; Growth Rate (U2OS; [1]): -0.36; Growth Rate (Fibroblast; [2]): 0.98; Growth Rate (Fibroblast; [6]): 0.87; Growth Rate (Fibroblast; [8]): 0.5
5 | CN(C(=O)c1ccccc1)c1cc(N(C)c2ccc3c(c2)CCc2ccc(C(=O)NCCN4CCOCC4)cc2C3=O)ccc1F [FM-743] | -0.43 | 0 | -0.34 | -0.27 | -0.33 | -0.15 | -0.11 | 0.89 | 0.79 |  | 0.72 | 0.81 | 0.66 | 0.74 | 0.53 | -0.57 | -0.66 | -0.58 | 0.49 | 0.69 | Growth Rate (HEK-293T; [7]): -0.25; Growth Rate (Fibroblast; [9]): 0.51; Growth Rate (Fibroblast; [2]): -0.35; Growth Rate (Fibroblast; [3]): -0.68; Growth Rate (Fibroblast; [4]): -0.23; Growth Rate (Fibroblast; [6]): -0.08; Growth Rate (Fibroblast; [8]): -0.28
6 | Cc1cccc(NC(=O)CN2CCC(c3ccccn3)CC2)c1.Cl.Cl | 0.47 | 0.66 | 0.79 | 0.97 |  | 0.98 |  |  |  |  |  |  |  |  |  | 0.02 | 0.48 | 0.77 | -1 | 0.72 | Growth Rate (Fibroblast; [3]): 0.19
7 | CC(/C=C1\SC(=S)N(CCCC(=O)Nc2ccc(C(=O)O)c(O)c2)C1=O)=C\c1ccccc1 |  |  |  |  |  |  |  | 0.71 | 0.79 |  |  |  |  |  |  | 0.97 |  | 0.83 | -1 | -0.04 | Growth Rate (HEK-293T; [9]): 0.57; Growth Rate (HEK-293T; [10]): 0.54
8 | CCCn1c(=O)c2[nH]c(-c3ccc(OCC(=O)Nc4ccc(C#N)cc4)cc3)nc2n(CCC)c1=O | 0.24 |  | 0.85 |  | 0.94 |  |  | 0.37 |  |  |  |  |  |  |  |  |  |  | -1 |  | Growth Rate (HEK-293T; [10]): 0.64
9 | CN1CCN2c3ccccc3Cc3ccccc3C2C1.Cl (configuration not stated) [MIANSERIN HYDROCHLORIDE] |  |  |  |  |  |  |  |  | 0.85 |  | 0.97 | 0.96 | 0.94 |  | 0.97 |  |  |  | -1 |  | Growth Rate (HEK-293T; [10]): 0.8
10 | CN1CCN2c3ncccc3Cc3ccccc3C2C1 (configuration not stated) [MIRTAZAPINE] |  | 0.53 |  |  |  |  |  |  |  | 0.81 | 0.97 |  | 0.79 | 0.96 | 0.85 |  |  |  | -0.76 |  | 
11 | CCCOc1ccc2[nH]cc(C3=CCNCC3)c2n1.Cl |  | 0.51 |  | 0.75 |  | 0.95 |  |  |  | 0.67 | 0.93 | 0.82 | 0.95 | 0.92 | 0.93 |  |  |  |  |  | Growth Rate (U2OS; [1]): 0.81
12 | C[C@H](NC(=O)c1c(C(F)F)nn(C)c1Oc1cccc(C(F)(F)F)c1)c1ccc(C(=O)O)cc1 [PALUPIPRANT] |  |  |  |  |  |  |  | -0.16 |  |  |  | 0.93 |  |  |  |  | 0.96 |  | -1 | 0.08 | Growth Rate (Fibroblast; [9]): 0.19
13 | CC[C@H](C)[C@@H]1NC(=O)[C@H](Cc2ccc(OC)cc2)NC(=O)CCCSC[C@@H](C(=O)N2CCC[C@H]2C(=O)N[C@@H](CC(C)C)C(=O)NCC(N)=O)NC(=O)[C@H](CC(N)=O)NC(=O)[C@H](CCC(N)=O)NC1=O [CARBETOCIN] (Y(Me)IQNCPLG-NH2; linker N-5 via X1) | 1 |  | 0.63 |  | 0.76 | 1 | 0.92 |  |  |  |  |  |  |  |  |  | 0.85 | 0.54 |  | 0.98 | Growth Rate (HEK-293T; [9]): 0.31; Growth Rate (HEK-293T; [10]): -0.11; Growth Rate (HEK-293T; [7]): 0.89; Growth Rate (Fibroblast; [9]): 0.35
